Laboratory results from publication PMC6532426 (Nature chemistry, 2019).

Target: active human CypA protein (Homo sapiens, UniProt P62937)
Experiment: Surface plasmon resonance
Format: binding
Conditions: assays of Fig. 5 (CypA SPR, IL-2)

active human CypA protein, sequence (P62937 whole entry): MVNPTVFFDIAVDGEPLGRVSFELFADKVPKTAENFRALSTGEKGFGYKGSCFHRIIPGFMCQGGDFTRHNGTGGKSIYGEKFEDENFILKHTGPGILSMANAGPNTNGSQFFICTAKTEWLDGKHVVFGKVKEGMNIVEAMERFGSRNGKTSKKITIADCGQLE

SMILES | immunosuppressive activity / CypA affinity in words | immunosuppressive activity / CypA affinity in words (listed as (–)-28)
CC(=O)O[C@@H]1OC[C@H]2CC(=O)CC[C@H]21 [(-)-24] | completely inactive | 
CC1(C)CCCC(C)(C2=C[C@@H]3COC(=O)[C@@H]3CC2)C1 (stereo partly drawn) [compound 28] | completely inactive | inactive
